From patent US5719179A, “Compound GEX1” (Kyowa Hakko Kogyo Co., Ltd., priority 1995, dated 1998)
Converted amounts (≈) assume the structure as drawn. Like-named read-outs stand apart in the source and are kept apart here.

Key:
[1] = system: Human Epidermic Cancer A431 Cells; assay: Growth inhibition against Human Epidermic Cancer A431 cells (MTT); type: cell-based; details: read-out: 50% growth inhibitory concentration (IC50), A431
Procedure: Growth Inhibition against Human Epidermic Cancer A431 Cells
Human Epidermic Cancer A431 cells were put into a 96-well microtiter plate (Nunc #167008) at 3×10^3 cells/well, and cultured in a 5% CO2 incubator at 37° C. for 24 hours. Each of 3 μg/ml GEX1 compounds was stepwise diluted. Each dilution was put into each well in an amount of 50 μl. The final concentration of the resulting suspension, in the wells of the plate was controlled to be at most 1 μg/ml. The cells were further cultured in the 5% CO2 incubator at 37° C. for 72 hours. Five hours before the termination of the incubation, MTT [3-(4,5-dimethylthiazo-2-yl)-2,5-diphenyltetrazolium bromide, Sigma Co., St. Louis, Mo.] dissolved in a medium as used for the culturing was put into each well in an amount of 50 μl, the final concentration of MTT added in each well being 1 mg/ml. After the culturing, DMSO was added to each well in an amount of 150 μl, followed by vigorous stirring with a plate mixer to completely dissolve crystals of MTT-formazan. The absorbance at 550 nm was measured by using a microplate reader MTP-32 (Corona Electric Co., Ltd.). and the cell growth inhibiting activity of each GEX1 compound tested was expressed in terms of 50% growth inhibitory concentration (IC50).

[2] = Solubility (physicochemical data)
[3] = JP,A, 6-22770; cited from earlier work
[4] = A-431, A431 cells, 72 hours, MTT, absorbance at 550 nm

Row | Structure (SMILES) | IC50 [1, 4] [µg/mL] | Solubility in chloroform [2] | Solubility in dimethylsulfoxide (DMSO) [2] | Solubility in hexane [2] | Solubility in methanol [2] | IC50 ([1]; A-431, 72 h) [µg/mL] | Solubility in water ([2]; water) | antitumor activity [3]
1 | COC(C(C)O)C(C)C1OC1(C)CC(C)C=CC=C(C)C1OC(CC(=O)O)CC(O)C1C (centres unmarked) [GEX1Q1] | 0.42 (≈ 0.924 µM) | hardly soluble | Soluble | hardly soluble | Soluble |  |  | 
2 | COC(C(C)O)C(C)C1OC1(C)CC(C)(O)C=CC=C(C)C1OC(CC(=O)O)CCC1C (centres unmarked) [GEX1Q2] |  | hardly soluble | Soluble | hardly soluble | Soluble | 0.23 (≈ 0.506 µM) |  | 
3 | COC(C(C)O)C(C)C1OC1(C)CC(C)C=CC=C(C)C1OC(CC(=O)OC2OC(C(=O)O)C(O)C(O)C2O)CCC1C (centres unmarked) [GEX1Q3] |  | hardly soluble | Soluble | hardly soluble | Soluble | 0.02 (≈ 0.0325 µM) | Soluble | 
4 | COC(C(C)O)C(C)C1OC1(C)CC(C)C=CC=C(CO)C1OC(CC(=O)O)CCC1C (centres unmarked) [GEX1Q4] |  | hardly soluble | Soluble | hardly soluble | Soluble | 0.45 (≈ 0.99 µM) |  | 
5 | CC(=CC=CC(C)CC1(C)OC1C(C)C(O)C(C)O)C1OC(CC(=O)O)CCC1C (centres unmarked) [GEX1Q5] | 0.0053 (≈ 0.0125 µM) |  | Soluble | hardly soluble | Soluble |  |  | 
6 | COC(C(C)O)C(C)C1OC1(C)CC(C)C=CC=C(C)C1OC(CC(=O)O)CCC1C (centres unmarked) [TAN-1609] |  |  |  |  |  |  |  | has antitumor activity
